Data taken from patent US20030229087A1 (priority 2002, published 2003).

Experiments:
Phytophthora infestans = experiment: whole plant or invertebrate; format: in vivo
Sphaerotheca fuliginea = experiment: whole plant or invertebrate; format: in vivo; details: for % Efficacy: in vivo
[1] = Phytophthora infestans, in Solanum lycopersicum, 72 h, read-out: % Efficacy
[2] = Podosphaera fuliginea, in Cucumis sativus, 240 h, read-out: % Efficacy

CCCN(CC)CC1COC2(CCC(C(C)(C)C)CC2)O1 (centres unmarked) [spiroxamine (II) (1), 8-t-butyl-2-(N-ethyl-N-n-propyl-amino)-methyl-1,4-dioxaspiro-[5,4]-decane]
pest or weed control at 10 g/ha (Phytophthora infestans; [1]): 0% | pest or weed control at 5 g/ha (Sphaerotheca fuliginea; [2]): 0%

N=C(N)NCCCCCCCCNCCCCCCCCNC(=N)N [(XIX) (18), N,N′″-(iminodi-8,1-octanediyl)bis-guanidine triacetate]
pest or weed control at 2.5 g/ha (Sphaerotheca fuliginea; [2]): 43%

CC12CC1(C)C(=O)N(c1cc(Cl)cc(Cl)c1)C2=O (centres unmarked) [procymidone (XLII) (41), procymidone]
pest or weed control at 5 g/ha (Sphaerotheca fuliginea; [2]): 0%

CO/C=C(/C(=O)OC)c1ccccc1Oc1cc(Oc2ccccc2C#N)ncn1 [azoxystrobin (XVII) (16), azoxystrobin]
pest or weed control at 1 g/ha (Sphaerotheca fuliginea; [2]): 37%

COC(=O)Nc1nc2ccccc2[nH]1 [carbendazim (XXXI) (30), carbendazim]
pest or weed control at 2.5 g/ha (Sphaerotheca fuliginea; [2]): 63%

CC1(C(=O)Nc2ccc(O)c(Cl)c2Cl)CCCCC1 [fenhexamid (LII) (51), fenhexamid]
pest or weed control at 5 g/ha (Sphaerotheca fuliginea; [2]): 10%

O=[N+]([O-])c1cc(C(F)(F)F)c(Cl)c([N+](=O)[O-])c1Nc1ncc(C(F)(F)F)cc1Cl [fluazinam]
pest or weed control at 2.5 g/ha (Phytophthora infestans; [1]): 32% | pest or weed control at 2.5 g/ha (Sphaerotheca fuliginea; [2]): 0%

Cc1ccc(N(SC(F)(Cl)Cl)S(=O)(=O)N(C)C)cc1 [tolylfluanid]
pest or weed control at 40 g/ha (Sphaerotheca fuliginea; [2]): 0%

CO/C=C(/C(=O)OC)c1ccccc1COc1cccc(C(F)(F)F)n1 [picoxystrobin (LXXXIII) (82), picoxystrobin]
pest or weed control at 2 g/ha (Sphaerotheca fuliginea; [2]): 0%

O=C1c2ccccc2C(=O)N1SC(Cl)(Cl)Cl [folpet]
pest or weed control at 40 g/ha (Sphaerotheca fuliginea; [2]): 0%

Cc1ccc(C(C)NC(=O)[C@@H](NC(=O)OC(C)C)C(C)C)cc1 (some centres unmarked) [iprovalicarb (LI) (50), iprovalicarb]
pest or weed control at 0.5 g/ha (Phytophthora infestans; [1]): 2% | pest or weed control at 2 g/ha (Sphaerotheca fuliginea; [2]): 0%

CC(C)NC(=O)N1CC(=O)N(c2cc(Cl)cc(Cl)c2)C1=O [iprodione (LXV) (64), iprodione]
pest or weed control at 5 g/ha (Sphaerotheca fuliginea; [2]): 0%

mancozeb [mancozeb (XLIII) (42)]
% Efficacy (Phytophthora infestans; in vivo): 23%

CCCCNC(=O)n1c(NC(=O)OC)nc2ccccc21 [benomyl (LXXXIII) (30), benomyl]
pest or weed control at 5 g/ha (Sphaerotheca fuliginea; [2]): 50%

dichlofluanid
% Efficacy (Sphaerotheca fuliginea): 0%

COCC(=O)N(c1c(C)cccc1C)C(C)C(=O)OC (centres unmarked) [metalaxyl (XXVII)(26), metalaxyl]
pest or weed control at 1 g/ha (Sphaerotheca fuliginea; [2]): 11%

[Cl-].[Cu+2].[Cu+2].[OH-].[OH-].[OH-] [copper oxychloride (LXIV) (63), copper oxychloride]
% Efficacy (Sphaerotheca fuliginea): 11%

N#Cc1c(Cl)c(Cl)c(Cl)c(C#N)c1Cl [tetrachloro-isophthalo-dinitrile]
pest or weed control at 40 g/ha (Sphaerotheca fuliginea; [2]): 0%

CO/N=C(/C(=O)OC)c1ccccc1CO/N=C(\C)c1cccc(C(F)(F)F)c1 [trifloxystrobin (LXXVI) (75), trifloxystrobin]
pest or weed control at 2 g/ha (Sphaerotheca fuliginea; [2]): 43%

C=CC1(C)OC(=O)N(c2cc(Cl)cc(Cl)c2)C1=O (centres unmarked) [vinclozolin]
pest or weed control at 5 g/ha (Sphaerotheca fuliginea; [2]): 10%

Cc1ccc2nc3sc(=O)sc3nc2c1 [chinomethionat]
pest or weed control at 20 g/ha (Phytophthora infestans; [1]): 0%

CCC1(C(=O)NC(C)c2ccc(Cl)cc2)C(C)C1(Cl)Cl (centres unmarked) [N-[1-(4-chloro-phenyl)-ethyl]-2,2-dichloro-1-ethyl-3-methyl-cyclopropane-carboxamide]
pest or weed control at 5 g/ha (Sphaerotheca fuliginea; [2]): 10%

O=C1C2CC=CCC2C(=O)N1SC(Cl)(Cl)Cl (centres unmarked) [captan (LV) (54), captan]
pest or weed control at 40 g/ha (Phytophthora infestans; [1]): 0%

CCCN(CCOc1c(Cl)cc(Cl)cc1Cl)C(=O)n1ccnc1 [prochloraz (XXI) (20), prochloraz]
pest or weed control at 10 g/ha (Phytophthora infestans; [1]): 0%

N#Cc1c[nH]cc1-c1cccc(Cl)c1Cl [fenpiclonil (XXVIII) (27), 4-(2,3-dichlorophenyl)-1H-pyrrole-3-carbonitrile]
pest or weed control at 2.5 g/ha (Sphaerotheca fuliginea; [2]): 0%

CC(C)(C)C(=O)C(Oc1ccc(Cl)cc1)n1cncn1 (centres unmarked) [triadimefon (IX) (8), 1-(4-chloro-phenoxy)-3,3-dimethyl-1-(1,2,4-triazol-1-yl)-butan-2-one]
pest or weed control at 10 g/ha (Sphaerotheca fuliginea; [2]): 0%
